The record followed here is patent US8440652B2, “MST1 kinase inhibitors and methods of their use” (Lexicon Pharmaceuticals, Inc., priority 2011, dated 2013).

Molecules are shown by their SMILES. Where two headings read alike, the source gives them in different places.

For this test, the target named is T1, MST1 (Homo sapiens, UniProt Q13043).
T1 sequence (Q13043 1-487): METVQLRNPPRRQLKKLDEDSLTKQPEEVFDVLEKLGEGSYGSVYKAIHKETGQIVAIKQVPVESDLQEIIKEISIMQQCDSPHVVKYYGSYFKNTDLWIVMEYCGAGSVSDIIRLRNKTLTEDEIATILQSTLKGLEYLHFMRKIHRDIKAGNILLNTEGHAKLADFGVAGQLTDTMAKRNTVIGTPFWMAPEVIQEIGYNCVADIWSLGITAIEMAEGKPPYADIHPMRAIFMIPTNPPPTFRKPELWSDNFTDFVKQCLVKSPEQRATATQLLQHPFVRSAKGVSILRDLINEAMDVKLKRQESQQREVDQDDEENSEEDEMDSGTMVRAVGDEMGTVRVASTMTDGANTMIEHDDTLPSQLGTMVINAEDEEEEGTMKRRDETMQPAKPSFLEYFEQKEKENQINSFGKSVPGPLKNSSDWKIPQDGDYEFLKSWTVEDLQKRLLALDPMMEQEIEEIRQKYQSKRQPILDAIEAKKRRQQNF
In words: In vitro measurement of MST1 inhibition (Z′-Lyte kinase assay). The test is classed as biochemical.

The mark [1] stands for this setting: 1 μM ATP, read-out: IC50 (μM) 1 μM ATP.
Setting [2] is: 50 μM ATP, read-out: IC50 (μM) 50 μM ATP.

On to `CC(C)(c1ccc(-c2cnc(N)c(-c3ccc4c(c3)CCNC4=O)c2)cc1)N1CCOCC1` [6-(2-amino-5-(4-(2-morpholinopropan-2-yl)phenyl)pyridin-3-yl)-3,4-dihydroisoquinolin-1(2H)-one], for which the 50% inhibitory concentration (IC50) is, setting by setting: under setting [1], less than 0.05 µM; under setting [2], less than 0.01 µM.
The matching figures for `CN(Cc1ccc(-c2cnc(N)c(-c3ccc4c(c3)CCNC4=O)c2)cc1)C1CC1` [6-(2-amino-5-(4-((cyclopropyl(methyl)amino)methyl)phenyl)pyridin-3-yl)-3,4-dihydroisoquinolin-1(2H)-one]: less than 0.05 µM and less than 0.01 µM.
For `CCS(=O)(=O)c1ccc(-c2cnc(N)c(-c3ccc4c(c3)CCNC4=O)c2)cc1` [6-(2-amino-5-(4-(ethylsulfonyl)phenyl)pyridin-3-yl)-3,4-dihydroisoquinolin-1(2H)-one], in that order: less than 0.05 µM and less than 0.05 µM.
The matching figures for `Nc1ncc(-c2ccc(F)cc2)cc1-c1cc2c(cn1)C(=O)NCC2` [6-(2-amino-5-(4-fluorophenyl)pyridin-3-yl)-3,4-dihydro-2,7-naphthyridin-1(2H)-one]: less than 0.05 µM and less than 0.05 µM.
Consider `Nc1ncc(-c2ccc(F)cc2)cc1-c1ccc2c(c1)CCNC2=O` [6-(2-amino-5-(4-fluorophenyl)pyridin-3-yl)-3,4-dihydroisoquinolin-1(2H)-one], for which the half-maximal inhibitory concentration (IC50) is less than 0.15 µM under setting [1] and less than 0.05 µM under setting [2].
The matching figures for `Cc1ccc(-c2cnc(N)c(-c3ccc4c(c3)CCNC4=O)c2)s1` [6-(2-amino-5-(5-methylthiophen-2-yl)pyridin-3-yl)-3,4-dihydroisoquinolin-1(2H)-one]: less than 0.05 µM and less than 0.01 µM.
The matching figures for `Cn1cc(-c2cnc(N)c(-c3ccc4c(c3)CCNC4=O)n2)cn1` [6-(3-amino-6-(1-methyl-1H-pyrazol-4-yl)pyrazin-2-yl)-3,4-dihydroisoquinolin-1(2H)-one]: less than 0.15 µM and less than 0.05 µM.
The matching figures for `CNC1(c2ccc(-c3cnc(N)c(-c4ccc5c(c4)CCNC5=O)n3)cc2)CC1` [6-(3-amino-6-(4-(1-(methylamino)cyclopropyl)phenyl)pyrazin-2-yl)-3,4-dihydroisoquinolin-1(2H)-one]: less than 0.01 µM and less than 0.01 µM.
In the case of `CC(Oc1ccc(-c2cnc(N)c(-c3ccc4c(c3)CCNC4=O)n2)cc1)C1CC1` (stereo not drawn) [6-(3-amino-6-(4-(1-cyclopropylethoxy)phenyl)pyrazin-2-yl)-3,4-dihydroisoquinolin-1(2H)-one], the IC50 under setting [1] was less than 0.05 µM and the IC50 under setting [2] is less than 0.01 µM.
`Nc1ncc(-c2ccc(C(=O)C(F)(F)F)cc2)nc1-c1ccc2c(c1)CCNC2=O` [6-(3-amino-6-(4-(2,2,2-trifluoroacetyl)phenyl)pyrazin-2-yl)-3,4-dihydroisoquinolin-1(2H)-one]: the 50% inhibitory concentration (IC50) by setting is: under setting [1], less than 0.15 µM; under setting [2], less than 0.05 µM.
`CC(C)(O)c1ccc(-c2cnc(N)c(-c3ccc4c(c3)CCNC4=O)n2)cc1` [6-(3-amino-6-(4-(2-hydroxypropan-2-yl)phenyl)pyrazin-2-yl)-3,4-dihydroisoquinolin-1(2H)-one]: the IC50 is less than 0.05 µM under setting [1] and less than 0.01 µM under setting [2].
For `Nc1ncc(-c2ccc(C3(O)CCOCC3)cc2)nc1-c1ccc2c(c1)CCNC2=O` [6-(3-amino-6-(4-(4-hydroxytetrahydro-2H-pyran-4-yl)phenyl)pyrazin-2-yl)-3,4-dihydroisoquinolin-1(2H)-one], in that order: less than 0.05 µM and less than 0.01 µM.
The matching figures for `Nc1ncc(-c2ccc(S(=O)(=O)CC3CC3)cc2)nc1-c1ccc2c(c1)CCNC2=O` [6-(3-amino-6-(4-((cyclopropylmethyl)sulfonyl)phenyl)pyrazin-2-yl)-3,4-dihydroisoquinolin-1(2H)-one]: less than 0.05 µM and less than 0.01 µM.
The matching figures for `Nc1ncc(-c2ccc(S(F)(F)(F)(F)F)cc2)nc1-c1ccc2c(c1)CCNC2=O` [6-(3-amino-6-(4-(pentafluorosulfanyl)phenyl)pyrazin-2-yl)-3,4-dihydroisoquinolin-1(2H)-one]: less than 0.15 µM and less than 0.05 µM.
Take `Nc1ncc(-c2ccc(S(=O)(=O)N3CCCCC3)cc2)nc1-c1ccc2c(=O)[nH]ccc2c1` [6-(3-amino-6-(4-(piperidin-1-ylsulfonyl)phenyl)pyrazin-2-yl)isoquinolin-1(2H)-one]: the 50% inhibitory concentration (IC50) under setting [1] was less than 0.01 µM and the IC50 under setting [2] was less than 0.01 µM.
Take `CC(C)(C)c1ccc(-c2cnc(N)c(-c3ccc4c(c3)CCNC4=O)n2)cc1` [6-(3-amino-6-(4-(tert-butyl)phenyl)pyrazin-2-yl)-3,4-dihydroisoquinolin-1(2H)-one]: the 50% inhibitory concentration (IC50) is less than 0.05 µM under setting [1] and less than 0.01 µM under setting [2].
For `Nc1ncc(-c2ccc(F)cc2)nc1-c1cc2c(cn1)C(=O)NCC2` [6-(3-amino-6-(4-fluorophenyl)pyrazin-2-yl)-3,4-dihydro-2,7-naphthyridin-1(2H)-one], in that order: less than 0.01 µM and less than 0.01 µM.
Consider `CCC(=O)c1ccc(-c2cnc(N)c(-c3ccc4c(c3)CCNC4=O)n2)cc1` [6-(3-amino-6-(4-propionylphenyl)pyrazin-2-yl)-3,4-dihydroisoquinolin-1(2H)-one], for which the IC50 is less than 0.05 µM under setting [1] and less than 0.01 µM under setting [2].
For `Nc1ncc(-c2ccc(S(=O)(=O)N3CCCC34CC4)cc2)cc1-c1ccc2c(c1)CCNC2=O` [6-(5-(4-(4-azaspiro[2.4]heptan-4-ylsulfonyl)phenyl)-2-aminopyridin-3-yl)-3,4-dihydroisoquinolin-1(2H)-one], in that order: less than 0.05 µM and less than 0.01 µM.
As for `COC[C@H]1C[C@@H]1N(C)S(=O)(=O)c1ccc(-c2cnc(N)c(-c3ccc4c(c3)CCNC4=O)n2)nc1` [6-(5-amino-6-(1-oxo-1,2,3,4-tetrahydroisoquinolin-6-yl)pyrazin-2-yl)-N-((1S,2S)-2-(methoxymethyl)cyclopropyl)-N-methylpyridine-3-sulfonamide], the IC50 under setting [1] was less than 0.15 µM and the IC50 under setting [2] is less than 0.05 µM.
Regarding `CN(C1CC1)S(=O)(=O)c1ccc(-c2cnc(N)c(-c3ccc4c(c3)CCNC4=O)n2)nc1` [6-(5-amino-6-(1-oxo-1,2,3,4-tetrahydroisoquinolin-6-yl)pyrazin-2-yl)-N-cyclopropyl-N-methylpyridine-3-sulfonamide], the IC50 reads like this: under setting [1], less than 0.01 µM; under setting [2], less than 0.01 µM.
Regarding `[2H]C([2H])([2H])N(C1CC1)S(=O)(=O)c1ccc(-c2cnc(N)c(-c3ccc4c(c3)CCNC4=O)n2)nc1` [6-(5-amino-6-(1-oxo-1,2,3,4-tetrahydroisoquinolin-6-yl)pyrazin-2-yl)-N-cyclopropyl-N-trideuteromethylpyridine-3-sulfonamide], the IC50 was less than 0.01 µM under setting [1] and less than 0.01 µM under setting [2].
Consider `CCN(C)S(=O)(=O)c1cnc(-c2cnc(N)c(-c3ccc4c(c3)CCNC4=O)n2)cc1C` [6-(5-amino-6-(1-oxo-1,2,3,4-tetrahydroisoquinolin-6-yl)pyrazin-2-yl)-N-ethyl-N,4-dimethylpyridine-3-sulfonamide], for which the IC50 was less than 0.01 µM under setting [1] and less than 0.01 µM under setting [2].
In the case of `CCN(C)S(=O)(=O)c1ccc(-c2cnc(N)c(-c3ccc4c(c3)CCNC4=O)n2)nc1` [6-(5-amino-6-(1-oxo-1,2,3,4-tetrahydroisoquinolin-6-yl)pyrazin-2-yl)-N-ethyl-N-methylpyridine-3-sulfonamide], the 50% inhibitory concentration (IC50) under setting [1] is less than 0.01 µM and the half-maximal inhibitory concentration (IC50) under setting [2] was less than 0.01 µM.
Take `CN(C)S(=O)(=O)N1CC=C(c2cnc(N)c(-c3ccc4c(c3)CCNC4=O)c2)CC1` [6-amino-N,N-dimethyl-5-(1-oxo-1,2,3,4-tetrahydroisoquinolin-6-yl)-5′,6′-dihydro-[3,4′-bipyridine]-1′(2′H)-sulfonamide]: the IC50 is, setting by setting: under setting [1], less than 0.15 µM; under setting [2], less than 0.05 µM.
The matching figures for `Nc1ncc(-c2ccc(F)cc2)nc1-c1ccc2c(c1)C1(CC1)CNC2=O` [6′-(3-amino-6-(4-fluorophenyl)pyrazin-2-yl)-2′,3′-dihydro-1′H-spiro[cyclopropane-1,4′-isoquinolin]-1′-one]: less than 0.15 µM and less than 0.01 µM.
For `Cc1cc(-c2cnc(N)c(-c3ccc4c(c3)CCNC4=O)c2)ncc1S(=O)(=O)NC1CC1` [6′-amino-N-cyclopropyl-4-methyl-5′-(1-oxo-1,2,3,4-tetrahydroisoquinolin-6-yl)-[2,3′-bipyridine]-5-sulfonamide], in that order: less than 0.01 µM and less than 0.01 µM.
The matching figures for `Nc1ncc(-c2ccc(S(=O)(=O)NC3CC3)cn2)cc1-c1ccc2c(c1)CCNC2=O` [6′-amino-N-cyclopropyl-5′-(1-oxo-1,2,3,4-tetrahydroisoquinolin-6-yl)-[2,3′-bipyridine]-5-sulfonamide]: less than 0.01 µM and less than 0.01 µM.
With `CN(C1CC1)S(=O)(=O)c1ccc(-c2cnc(N)c(-c3ccc4c(c3)CCNC4=O)c2)nc1` [6′-amino-N-cyclopropyl-N-methyl-5′-(1-oxo-1,2,3,4-tetrahydroisoquinolin-6-yl)-[2,3′-bipyridine]-5-sulfonamide], the 50% inhibitory concentration (IC50) is, setting by setting: under setting [1], less than 0.01 µM; under setting [2], less than 0.01 µM.
`CN(C1CC1)S(=O)(=O)c1ccc(-c2cnc(N)c(-c3ccc4c(c3)CCNC4=O)c2)cn1` [6′-amino-N-cyclopropyl-N-methyl-5′-(1-oxo-1,2,3,4-tetrahydroisoquinolin-6-yl)-[3,3′-bipyridine]-6-sulfonamide]: the half-inhibitory concentration (IC50) was less than 0.01 µM under setting [1] and less than 0.01 µM under setting [2].

By IC50 is commonly meant the concentration that gives 50% inhibition.
